This experiment concerns the target T1, SirT1 (Homo sapiens, UniProt Q96EB6).
T1 sequence (Q96EB6 1-747): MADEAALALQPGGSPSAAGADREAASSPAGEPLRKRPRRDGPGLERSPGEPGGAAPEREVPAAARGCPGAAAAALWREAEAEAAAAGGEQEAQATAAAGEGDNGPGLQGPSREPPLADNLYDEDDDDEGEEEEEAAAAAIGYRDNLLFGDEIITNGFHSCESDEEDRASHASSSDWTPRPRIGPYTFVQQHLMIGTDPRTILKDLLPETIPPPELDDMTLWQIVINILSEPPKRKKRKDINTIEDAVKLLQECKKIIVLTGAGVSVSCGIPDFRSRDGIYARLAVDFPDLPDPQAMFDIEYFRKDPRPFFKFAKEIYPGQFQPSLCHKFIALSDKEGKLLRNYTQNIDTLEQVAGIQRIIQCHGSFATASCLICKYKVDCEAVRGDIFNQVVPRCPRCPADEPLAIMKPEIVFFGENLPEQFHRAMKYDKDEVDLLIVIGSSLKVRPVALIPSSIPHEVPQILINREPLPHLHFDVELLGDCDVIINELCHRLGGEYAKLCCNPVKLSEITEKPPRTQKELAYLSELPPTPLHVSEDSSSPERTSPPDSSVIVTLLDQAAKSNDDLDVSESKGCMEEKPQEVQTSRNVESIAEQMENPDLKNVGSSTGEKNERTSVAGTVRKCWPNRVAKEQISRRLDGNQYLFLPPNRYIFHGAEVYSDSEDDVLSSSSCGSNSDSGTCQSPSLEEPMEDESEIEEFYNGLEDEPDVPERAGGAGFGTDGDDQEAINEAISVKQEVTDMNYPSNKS
Kind of experiment: SirT1 p53-382 enzymatic deacetylation assay (fluorogenic Fluor-de-Lys principle). The experiment is classed as biochemical. From the text: An exemplary assay method includes a 1536 well format of the SirT1 enzymatic assay that is based on the commercial “Fluor-de-Lys” assay principle by Biomol, which is fluorogenic (www.biomol.com/store/Product_Data_PDFs/ak500.pdf). In this assay, deacetylation of the e-amino function of a lysyl residue is coupled to a fluorogenic “development step that is dependent on the unblocked e-amino functionality and generates fluorescent aminomethylcoumarin. Fluorescence can be read on a commercial macroscopic reader.

Turning to `NC(=O)C1Cc2c([nH]c3ccccc23)CN1` (centres unmarked) [Compound 2, 2,3,4,9-Tetrahydro-1H-b-carboline-3-carboxylic acid amide], the IC50 (as a rule, the concentration that inhibits the measured activity by half) was over 10 µM.

`O=C(Nc1ccc(Cl)cn1)C1CCCc2c1[nH]c1ccc(Cl)cc21` (centres unmarked) [Compound 11, 6-Chloro-2,3,4,9-tetrahydro-1H-carbazole-1-carboxylic acid (5-chloro-pyridin-2-yl)-amide] yielded an IC50 of 1 to 10 µM. Turning to `NC(=O)C1CCc2c([nH]c3ccc(Cl)cc23)C1` (centres unmarked) [Compound 9, 6-Chloro-2,3,4,9-tetrahydro-1H-carbazole-2-carboxylic acid amide], the IC50 is over 10 µM.

For `NC(=O)C1CCc2c([nH]c3ccc(Br)cc23)C1` (centres unmarked) [Compound 3, 6-Bromo-2,3,4,9-tetrahydro-1H-carbazole-2-carboxylic acid amide], the half-maximal inhibitory concentration (IC50) fell in the range of 1 to 10 µM. The same measure for `NC(=O)C1CCc2c1[nH]c1ccccc21` (centres unmarked) [Compound 10, 1,2,3,4-Tetrahydro-cyclopenta[b]indole-3-carboxylic acid amide]: 1 to 10 µM; for `NC(=O)C1CCc2c1[nH]c1ccc(Cl)cc21` (centres unmarked) [Compound 1, 7-Chloro-1,2,3,4-tetrahydro-cyclopenta[b]indole-3-carboxylic acid amide]: under 1 µM; for `Cc1ccc2[nH]c3c(c2c1)CCCC3(C)C(N)=O` (centres unmarked) [Compound 12, 1,6-Dimethyl-2,3,4,9-tetrahydro-1H-carbazole-1-carboxylic acid amide]: over 10 µM. Under `NC(=O)C1CCc2c([nH]c3ccc(OC(F)(F)F)cc23)C1` (centres unmarked) [Compound 13, 6-Trifluoromethoxy-2,3,4,9-tetrahydro-1H-carbazole-2-carboxylic acid amide] stands over 10 µM.

Values taken from patent US20050256181A1, “Treating a viral disorder” (ELIXIR PHARMACEUTICALS, INC., priority 2004, published 2005).
